Columns and labels:
human gastric explants [1] = assay: Ex vivo toxicity assay, histological examination (H&E) of human gastric explants; type: cell-based; settings: 2, 4 or 8 h; peptides 100 µM, CTAB 300 µM; H&E staining
Description: To further evaluate the innocuity of the peptides, ex vivo experiments were performed using human explants as previously described. Briefly, human gastric tissue samples were obtained from patients undergoing surgery at the Hospital Laveran (Marseille, France), unit of gastrointestinal surgery according to a collaborative clinical transfer project. The procedures were approved by the French ethic committee (CODECOH n° DC-2019-3402). All patients agreed for the use of their tissues for research purposes. Samples were taken from healthy patients during sleeve gastrectomy from macroscopically unaffected area as identified by the surgeons. After resection, the specimens were placed in ice-cold oxygenated sterile DMEM solution containing 1% streptomycin/penicillin solution and 50 μg/mL gentamycin and were directly transferred to the laboratory within 15 min on ice. Gastric tissues were extensively washed and maintained in ice-cold culture media containing 1% streptomycin/penicillin solution and 50 μg/mL gentamycin. […] Quantification of the release of LDH was also used in addition to microscopic observations to evaluate the impact of peptides on human gastric explants. […] The LDH activity was measured using previously described protocol with minor changes. […] Increase in OD339nm was then measured at 30 °C after 0, 1, 5, and 10 min using microplate reader (Synergy Mx, Biotek). […]

human gastric explants [2] = assay: Ex vivo toxicity assay, LDH release from human gastric explants; type: cell-based; settings: peptides 100 µM, CTAB 300 µM, % of total release
Description: To further evaluate the innocuity of the peptides, ex vivo experiments were performed using human explants as previously described. Briefly, human gastric tissue samples were obtained from patients undergoing surgery at the Hospital Laveran (Marseille, France), unit of gastrointestinal surgery according to a collaborative clinical transfer project. The procedures were approved by the French ethic committee (CODECOH n° DC-2019-3402). All patients agreed for the use of their tissues for research purposes. Samples were taken from healthy patients during sleeve gastrectomy from macroscopically unaffected area as identified by the surgeons. After resection, the specimens were placed in ice-cold oxygenated sterile DMEM solution containing 1% streptomycin/penicillin solution and 50 μg/mL gentamycin and were directly transferred to the laboratory within 15 min on ice. Gastric tissues were extensively washed and maintained in ice-cold culture media containing 1% streptomycin/penicillin solution and 50 μg/mL gentamycin. Tissues were cleaned from vascular vessels and conjunctive tissue using forceps under binocular microscope. Gastric explants (wet weight of 20–30 mg) were then isolated from the cleaned resections using surgical punch (diameter of 0.5 cm^2). […] Finally, the explants were washed three times with culture media without antibiotics and transferred into 24-well plates before being incubated in RPMI media without fetal bovine serum, antibiotics and phenol red at 37 °C in the 5% CO2 incubator with 100 µM of peptides for 2, 4 or 8 h. Phenol red was omitted from the culture media since it interferes with the lactate dehydrogenase (LDH) assay. The detergent cetyl-trimethylammonium bromide (CTAB) at 300 µM was used as positive control of tissue damages. At the end of the incubation, the explants were collected and washed three times with PBS^++ and were fixed overnight at 4 °C with PFA diluted at 4% in PBS. After that, gastric explants were washed twice with PBS and were included in an inclusion medium (TFM-EMS), in transverse position to allow cutting in the crypt-villosity axis using cryostat (Leica CM3050) (Leica Microsystems, Nanterre, France). Four sections of 5 µm thickness were obtained per explant, each section being separated by 100 µm from the next in order to cover all the tissue. Explants were then stained using hematoxylin and eosin (H&E) staining protocol. Briefly, samples were incubated for 8 min in hematoxylin (Sigma-Aldrich) and then allowed to stain by incubation with water for 2 min. Then explants were incubated for 1 min in eosin (Sigma-Aldrich) and then in water for 1 min. This was followed by incubation of explants with ethanol at concentration of 70% then 95% and finally 100% for 2 min each. After blotting excess ethanol, gastric explants were incubated for 15 min with xylene and mounted with coverslip using Eukitt mounting media (EMS, Hatfield, PA, USA). Finally, explants were left overnight to dry before examination of tissue organization under the microscope (Leitz DMRB microscope (Leïca), equipped with Leïca DFC 450C camera). Quantification of the release of LDH was also used in addition to microscopic observations to evaluate the impact of peptides on human gastric explants. Briefly, after 2, 4 or 8 h of incubation of the explants with the peptides, the supernatants of the wells were collected and stored at -80 °C before the LDH assay. The LDH activity was measured using previously described protocol with minor changes. Briefly, 50 µL of supernatants obtained from explants were mixed with 200 µL of Tris-Lactate buffer (containing Tris HCl at 86 mM, L-Lactate at 56 mM and KCl at 172 mM, pH 9.3, all from Sigma-Aldrich) and 20 µL of NAD (at 172 mM, Sigma-Aldrich) into well of 96-wells plates. Increase in OD339nm was then measured at 30 °C after 0, 1, 5, and 10 min using microplate reader (Synergy Mx, Biotek). […]

In the case of `CCCCCCCCCCCCCCCC[N+](C)(C)C` [CTAB, cetyl-trimethylammonium bromide, reference compound], the “tissue organization by microscopic observation” value (human gastric explants [1]) is reported as “major alterations of the tissue architecture”, the LDH release (human gastric explants [2]; 2 h) is reported as 81.1% and the LDH release (human gastric explants [2]; 4 h) is reported as 90.3%. It also gave an LDH release (human gastric explants [2]; 8 h) of 100%.
